GI50 data for 24 compounds are collected here from patent US11753397B2, “Cereblon binders for the degradation of ikaros” (C4 Therapeutics, Inc., priority 2018, dated 2023).

Bounds are passed on as bounds.

The subject of the experiment is NCIH929.1 cells. The experiment in a line: Cell viability assay (CellTiter-Glo 2.0, ATP quantification). The class given is cell-based. To be noted: NCIH929.1 cell viability, CellTiter-Glo 2.0, 96 hr incubation, top concentration 1 μM. The protocol: Example 59. Cell Viability Assay
RPMI 1640 medium, fetal bovine serum (FBS) and 2-mercaptoethanol were purchased from Gibco (Grand Island, N.Y., USA). CellTiter-Glo® 2.0 Assay was purchased from Promega (Madison, Wis., USA). NCIH929.1 cell line was purchased from ATCC (Manassas, Va., USA). Cell culture flasks and 384-well microplates were acquired from VWR (Radnor, Pa., USA).
NCIH929.1 cell viability was determined based on quantification of ATP using CellTiter-Glo® 2.0 luminescent Assay kit, which signals the presence of metabolically-active cells. Briefly, the test compound was added to 384-well plates at a top concentration of 1 μM with 10 points, half log titration in duplicates. NCIH929.1 cells were seeded into the 384-well plates in RPMI medium containing 10% FBS and 0.05 mM 2-mercaptoethanol at a cell density of 750 cells per well. Cells treated in the absence of the test compound were the negative control and cells treated in the absence of CellTiter-Glo® 2.0 were the positive control. At the same day of compound treatment, CellTiter-Glo® 2.0 was added to a plate with cells treated in the absence of the test compound to establish Cytostatic control value (CT0). Cells treated with the test compound were incubated at 37° C. with 5% CO2 for 96 hr. CellTiter-Glo reagent was then added to the cells and luminescence was acquired on EnVision™ Multilabel Reader (PerkinElmer, Santa Clara, Calif., USA).
With `C[C@H](O)C(=O)N1CCC(n2cc(CNc3cccc4c3C(=O)N(C3CCC(=O)NC3=O)C4=O)cn2)CC1` (stereo partly drawn) [Compound 53, 2-(2,6-dioxopiperidin-3-yl)-4-(((1-(1-((S)-2-hydroxypropanoyl)piperidin-4-yl)-1H-pyrazol-4-yl)methyl)amino)isoindoline-1,3-dione], the 50% growth inhibitory concentration (GI50) was less than 100 nM. Next, `CN1CCC(C)(C(=O)N2CCC(n3cc(CNc4cccc5c4C(=O)N(C4CCC(=O)NC4=O)C5=O)cn3)CC2)CC1` (stereo not drawn) [Compound 55, 4-(((1-(1-(1,4-dimethylpiperidine-4-carbonyl)piperidin-4-yl)-1H-pyrazol-4-yl)methyl)amino)-2-(2,6-dioxopiperidin-3-yl)isoindoline-1,3-dione]: less than 100 nM; `CC(C(=O)N1CCC(n2cc(CNc3cccc4c3C(=O)N(C3CCC(=O)NC3=O)C4=O)cn2)CC1)(C(F)(F)F)C(F)(F)F` (stereo not drawn) [Compound 56, 2-(2,6-dioxopiperidin-3-yl)-4-(((1-(1-(3,3,3-trifluoro-2-methyl-2-(trifluoromethyl)propanoyl)piperidin-4-yl)-1H-pyrazol-4-yl)methyl)amino)isoindoline-1,3-dione]: less than 100 nM; `O=C1CCC(N2C(=O)c3cccc(NCc4cnn(C5CCN(C(=O)[C@@H]6CCCO6)CC5)c4)c3C2=O)C(=O)N1` (stereo partly drawn) [Compound 59, 2-(2,6-dioxopiperidin-3-yl)-4-(((1-(1-((S)-tetrahydrofuran-2-carbonyl)piperidin-4-yl)-1H-pyrazol-4-yl)methyl)amino)isoindoline-1,3-dione]: less than 100 nM. Consider `O=C1CCC(N2C(=O)c3cccc(NCc4cnn(C5CCN(C(=O)C6(C(F)(F)F)CC6)CC5)c4)c3C2=O)C(=O)N1` (stereo not drawn) [Compound 60, 2-(2,6-dioxopiperidin-3-yl)-4-(((1-(1-(1-(trifluoromethyl)cyclopropane-1-carbonyl)piperidin-4-yl)-1H-pyrazol-4-yl)methyl)amino)isoindoline-1,3-dione], for which the GI50 is less than 100 nM. Next, `CC1(C(=O)N2CCC(n3cc(CNc4cccc5c4C(=O)N(C4CCC(=O)NC4=O)C5=O)cn3)CC2)COC1` (stereo not drawn) [Compound 61, 2-(2,6-dioxopiperidin-3-yl)-4-(((1-(1-(3-methyloxetane-3-carbonyl)piperidin-4-yl)-1H-pyrazol-4-yl)methyl)amino)isoindoline-1,3-dione]: less than 100 nM. Compound `CC1(C(=O)N2CCC(n3cc(CNc4cccc5c4C(=O)N(C4CCC(=O)NC4=O)C5=O)cn3)CC2)CCCC1` (stereo not drawn) [Compound 62, 2-(2,6-dioxopiperidin-3-yl)-4-(((1-(1-(1-methylcyclopentane-1-carbonyl)piperidin-4-yl)-1H-pyrazol-4-yl)methyl)amino)isoindoline-1,3-dione] came in with a GI50 of less than 1 nM. `CC1(C(=O)N2CCC(n3cc(CNc4cccc5c4C(=O)N(C4CCC(=O)NC4=O)C5=O)cn3)CC2)CCCCC1` (stereo not drawn) [Compound 63, 2-(2,6-dioxopiperidin-3-yl)-4-(((1-(1-(1-methylcyclohexane-1-carbonyl)piperidin-4-yl)-1H-pyrazol-4-yl)methyl)amino)isoindoline-1,3-dione] came in with a 50% growth inhibitory concentration (GI50) of less than 1 nM. Take `CC1(C(=O)N2CCC(n3cc(CNc4cccc5c4C(=O)N(C4CCC(=O)NC4=O)C5=O)cn3)CC2)CCOCC1` (stereo not drawn) [Compound 64, 2-(2,6-dioxopiperidin-3-yl)-4-(((1-(1-(4-methyltetrahydro-2H-pyran-4-carbonyl)piperidin-4-yl)-1H-pyrazol-4-yl)methyl)amino)isoindoline-1,3-dione]: the GI50 is less than 100 nM.

The compound `CC(C)(C)OC(=O)N1CCC(n2cc(CNc3cccc4c3C(=O)N(C3CCC(=O)NC3=O)C4=O)cn2)CC1` (stereo not drawn) [Compound 66, tert-butyl 4-(4-(((2-(2,6-dioxopiperidin-3-yl)-1,3-dioxoisoindolin-4-yl)amino)methyl)-1H-pyrazol-1-yl)piperidine-1-carboxylate] registered a GI50 of less than 100 nM. In turn, `O=C1CCC(N2C(=O)c3cccc(NCc4cnn(C5CCN(C(=O)C6(c7ccc(F)cc7)CCCCC6)CC5)c4)c3C2=O)C(=O)N1` (stereo not drawn) [Compound 68, 2-(2,6-dioxopiperidin-3-yl)-4-(((1-(1-(1-(4-fluorophenyl)cyclohexane-1-carbonyl)piperidin-4-yl)-1H-pyrazol-4-yl)methyl)amino)isoindoline-1,3-dione] had a GI50 of less than 100 nM.

Regarding `O=C1CCC(N2C(=O)c3cccc(NCc4cnn(C5CCN(C(=O)C6(c7ccccc7)COC6)CC5)c4)c3C2=O)C(=O)N1` (stereo not drawn) [Compound 69, 2-(2,6-dioxopiperidin-3-yl)-4-(((1-(1-(3-phenyloxetane-3-carbonyl)piperidin-4-yl)-1H-pyrazol-4-yl)methyl)amino)isoindoline-1,3-dione], the GI50 was less than 100 nM. With `O=C1CCC(N2C(=O)c3cccc(NCc4cnn(C5CCN(C(=O)C6(c7ccc(F)cc7)CCC6)CC5)c4)c3C2=O)C(=O)N1` (stereo not drawn) [Compound 70, 2-(2,6-dioxopiperiidn-3-yl)-4-(((1-(1-(1-(4-fluorophenyl)cyclobutane-1-carbonyl)piperidin-4-yl)-1H-pyrazol-4-yl)methyl)amino)isoindoline-1,3-dione] the figure was less than 1 nM; with `O=C1CCC(N2C(=O)c3cccc(NCc4cnn(C5CCN(C(=O)C6(Cc7ccccc7)CC6)CC5)c4)c3C2=O)C(=O)N1` (stereo not drawn) [Compound 71, 4-(((1-(1-(1-benzylcyclopropane-1-carbonyl)piperidin-4-yl)-1H-pyrazol-4-yl)methyl)amino)-2-(2,6-dioxopiperidin-3-yl)isoindoline-1,3-dione], less than 100 nM. Next, `O=C1CCC(N2C(=O)c3cccc(NCc4cnn(C5CCN(C(=O)C6(c7ccccc7)CC6)CC5)c4)c3C2=O)C(=O)N1` (stereo not drawn) [Compound 72, 2-(2,6-dioxopiperidin-3-yl)-4-(((1-(1-(1-phenylcyclopropane-1-carbonyl)piperidin-4-yl)-1H-pyrazol-4-yl)methyl)amino)isoindoline-1,3-dione]: less than 100 nM; `CC(C)(C(=O)N1CCC(n2cc(CNc3cccc4c3C(=O)N(C3CCC(=O)NC3=O)C4=O)cn2)CC1)C(F)(F)F` (stereo not drawn) [Compound 73, 2-(2,6-dioxopiperidin-3-yl)-4-(((1-(1-(3,3,3-trifluoro-2,2-dimethylpropanoyl)piperidin-4-yl)-1H-pyrazol-4-yl)methyl)amino)isoindoline-1,3-dione]: less than 100 nM; `CC1(C(=O)N2CCC(n3cc(CNc4cccc5c4C(=O)N(C4CCC(=O)NC4=O)C5=O)cn3)CC2)CC(F)(F)C1` (stereo not drawn) [Compound 74, 4-(((1-(1-(3,3-difluoro-1-methylcyclobutane-1-carbonyl)piperidin-4-yl)-1H-pyrazol-4-yl)methyl)amino)-2-(2,6-dioxopiperidin-3-yl)isoindoline-1,3-dione]: less than 100 nM. With `O=C1CCC(N2C(=O)c3cccc(NCc4cnn(C5CCN(C(=O)C6(C(F)(F)F)CCC6)CC5)c4)c3C2=O)C(=O)N1` (stereo not drawn) [Compound 75, 2-(2,6-dioxopiperidin-3-yl)-4-(((1-(1-(1-(trifluoromethyl)cyclobutane-1-carbonyl)piperidin-4-yl)-1H-pyrazol-4-yl)methyl)amino)isoindoline-1,3-dione] the figure was less than 1 nM; with `O=C1CCC(N2C(=O)c3cccc(NCc4cnn(C5CCN(C(=O)C6(c7ccc(F)cc7)CCCC6)CC5)c4)c3C2=O)C(=O)N1` (stereo not drawn) [Compound 77, 2-(2,6-dioxopiperidin-3-yl)-4-(((1-(1-(1-(4-fluorophenyl)cyclopentane-1-carbonyl)piperidin-4-yl)-1H-pyrazol-4-yl)methyl)amino)isoindoline-1,3-dione], less than 1 nM. On to `O=C1CCC(N2C(=O)c3cccc(NCc4cnn(C5CCN(C(=O)C67CC(F)(C6)C7)CC5)c4)c3C2=O)C(=O)N1` (stereo not drawn) [Compound 78, 2-(2,6-dioxopiperidin-3-yl)-4-(((1-(1-(3-fluorobicyclo[1.1.1]pentane-1-carbonyl)piperidin-4-yl)-1H-pyrazol-4-yl)methyl)amino)isoindoline-1,3-dione], for which the 50% growth inhibitory concentration (GI50) was less than 100 nM. As for `O=C1CCC(N2C(=O)c3cccc(NCc4cnn(C5CCN(C(=O)C6(F)CCC6)CC5)c4)c3C2=O)C(=O)N1` (stereo not drawn) [Compound 79, 2-(2,6-dioxopiperidin-3-yl)-4-(((1-(1-(1-fluorocyclobutane-1-carbonyl)piperidin-4-yl)-1H-pyrazol-4-yl)methyl)amino)isoindoline-1,3-dione], the 50% growth inhibitory concentration (GI50) is less than 100 nM. In the case of `N#CC1(C(=O)N2CCC(n3cc(CNc4cccc5c4C(=O)N(C4CCC(=O)NC4=O)C5=O)cn3)CC2)CCC1` (stereo not drawn) [Compound 81, 1-(4-(4-(((2-(2,6-dioxopiperidin-3-yl)-1,3-dioxoisoindolin-4-yl)amino)methyl)-1H-pyrazol-1-yl)piperidine-1-carbonyl)cyclobutane-1-carbonitrile], the 50% growth inhibitory concentration (GI50) was less than 100 nM. The compound `COC1(C(=O)N2CCC(n3cc(CNc4cccc5c4C(=O)N(C4CCC(=O)NC4=O)C5=O)cn3)CC2)CCC1` (stereo not drawn) [Compound 82, 2-(2,6-dioxopiperidin-3-yl)-4-(((1-(1-(1-methoxycyclobutane-1-carbonyl)piperidin-4-yl)-1H-pyrazol-4-yl)methyl)amino)isoindoline-1,3-dione] showed a GI50 of less than 100 nM. With `O=C1CCC(N2C(=O)c3cccc(NCc4cnn(C5CCN(C(=O)C(F)(F)C(F)(F)F)CC5)c4)c3C2=O)C(=O)N1` (stereo not drawn) [Compound 83, 2-(2,6-dioxopiperidin-3-yl)-4-(((1-(1-(2,2,3,3,3-pentafluoropropanoyl)piperidin-4-yl)-1H-pyrazol-4-yl)methyl)amino)isoindoline-1,3-dione] the figure was less than 100 nM.
